From PMC10221946, “Screening of Tyrosinase, Xanthine Oxidase, and α-Glucosidase Inhibitors from Polygoni Cuspidati Rhizoma et Radix by Ultrafiltration and HPLC Analysis” (Molecules, 2023) come the findings set out here.

Assay [1] deals with α-GLU. The experiment in a line: UF-HPLC screening, binding degree with α-GLU. The following applies: PCR extraction 5 mg/mL, 6 U/mL α-GLU, 37 °C 60 min, active vs inactive enzyme peak area. On the procedure: (§1) The UF experiment was performed according to the method described in the literature, with slight modifications. In the experimental group, 200 µL of the PCR extraction (5 mg/mL) was mixed with 200 µL of 3 enzyme solutions (200 U/mL of TYR, 4 U/mL of XOD, and 6 U/mL of α-GLU, respectively). The mixtures were incubated at 37 °C for 60 min, and then 200 μL of each of them was transferred to a 3 KDa molecular weight cut-off ultrafiltration centrifuge tube to separate the unbound compounds from the enzyme–ligand complexes by centrifugation (9400× g, 30 min). Finally, the ultrafiltration filter was washed three times with 5% methanol–PBS under centrifugal conditions (9400× g, 30 min) to completely remove any unbound components. The concentration and pH of the PBS used for the different enzymes were the same as for the offline inhibition tests.
(§2) Finally, the unbound component solutions of the experimental and control groups were analyzed by HPLC. […] Binding degree = (1 − P2/P1) × 100%(2)
(§3) HPLC condition: An Agilent 1260 high-performance liquid chromatography system (Agilent Technologies, Santa Clara, CA, USA), equipped with a quaternary pump system, an auto-sampler, a column oven, and a diode array detector, was employed in the current experiment. The sample was separated on an Agilent Poroshell 120 EC-C18 column (100 mm × 4.6 mm, 2.7 μm). The column temperature was set at 30 °C. The mobile phase was 0.1% aqueous formic acid (A) and acetonitrile (B), with a gradient elution procedure of 5% B (0 min), 5% B (3 min), 20% B (23 min), 24% B (28 min), 60% B (32 min), and 100% B (38 min). The flow rate was 0.6 mL/min. The detection wavelength was set at 290 nm, and the injection volume was 5.0 µL.

For assay [2], the system named is TYR. The experiment in a line: UF-HPLC screening, binding degree with TYR. To be noted: PCR extraction 5 mg/mL, 200 U/mL TYR, 37 °C 60 min, active vs inactive enzyme peak area. On the procedure:
as §1, §2, §3

The target of assay [3] is T1, XOD (Bos taurus, UniProt P80457).
T1 construct: purchased Sigma-Aldrich (Shanghai, China)
The experiment in a line: UF-HPLC screening, binding degree with XOD. To be noted: PCR extraction 5 mg/mL, 4 U/mL XOD, 37 °C 60 min, active vs inactive enzyme peak area. Here is the method: as §1, §2, §3

Another assay addresses T2, tyrosinase (TYR) (Agaricus bisporus, UniProt C7FF04).
T2 construct: purchased Sigma-Aldrich (Shanghai, China)
Kind of assay: Tyrosinase (TYR) inhibition test, offline 96-well microplate. It is filed as biochemical. Here is the method:
The reaction was incubated at 25 °C for 50 min. […] Inhibition (%) = [(Abscontrol − Abssample)/Abscontrol] × 100%(1)

Assay [4] deals with TYR. Kind of assay: Kinetic analysis (Lineweaver–Burk) on TYR. The format is biochemical. The following applies: Lineweaver–Burk plot, L-tyrosine 1.0~5.0 mM, TYR 200 U/mL. On the procedure: (§4) Subsequently, kinetic analysis was conducted using Lineweaver–Burk plots to investigate the inhibition modes on enzymes caused by methylgallate and polydatin. Competitive, noncompetitive, and mixed inhibitions are three common modes in enzyme kinetic analysis. […] All of the straight lines almost intersect on the Y axis at a certain point. […] All of the straight lines almost intersect on the X axis at a certain point. […] All of the straight lines usually intersect in the quadrants at one point.
(§5) In this work, Lineweaver–Burk was used to investigate the inhibition type of methylgallate and polydatin on enzymes. For TYR, the concentration of the enzyme was kept constant at 200 U/mL, and various concentrations of L-tyrosine (1.0~5.0 mM) were prepared. Various concentrations of methylgallate (0.0~1.3 mM) and polydatin (0.0~0.4 mM) were also provided. For XOD, the concentration of the enzyme was kept constant at 0.05 U/mL, and various concentrations of xanthin (0.06~0.50 mM) were prepared. Various concentrations of polydatin (0.0~0.5 mM) were also provided. For α-GLU, the concentration of the enzyme was kept constant at 0.15 U/mL, and various concentrations of ρNPG (0.8~5.0 mM) were prepared. Various concentrations of polydatin (0.0~3.6 mM) were also provided. GraphPad Prism 5.0 software (USA) was used for the calculation.

The target of another assay is xanthine oxidase (XOD) (Bos taurus, UniProt P80457). The experiment in a line: Xanthine oxidase (XOD) inhibition test, offline 96-well microplate.
Assay [5] concerns the target T1, XOD. The experiment in a line: Kinetic analysis (Lineweaver–Burk) on XOD. The format is biochemical. The following applies: Lineweaver–Burk plot, xanthin 0.06~0.50 mM, XOD 0.05 U/mL. On the procedure:
as §4, §5

Assay [6] has as its system α-GLU. Kind of assay: Kinetic analysis (Lineweaver–Burk) on α-GLU. It is filed as biochemical. The following applies: Lineweaver–Burk plot, ρNPG 0.8~5.0 mM, α-GLU 0.15 U/mL. On the procedure: as §4, §5

T1 sequence (P80457 whole entry): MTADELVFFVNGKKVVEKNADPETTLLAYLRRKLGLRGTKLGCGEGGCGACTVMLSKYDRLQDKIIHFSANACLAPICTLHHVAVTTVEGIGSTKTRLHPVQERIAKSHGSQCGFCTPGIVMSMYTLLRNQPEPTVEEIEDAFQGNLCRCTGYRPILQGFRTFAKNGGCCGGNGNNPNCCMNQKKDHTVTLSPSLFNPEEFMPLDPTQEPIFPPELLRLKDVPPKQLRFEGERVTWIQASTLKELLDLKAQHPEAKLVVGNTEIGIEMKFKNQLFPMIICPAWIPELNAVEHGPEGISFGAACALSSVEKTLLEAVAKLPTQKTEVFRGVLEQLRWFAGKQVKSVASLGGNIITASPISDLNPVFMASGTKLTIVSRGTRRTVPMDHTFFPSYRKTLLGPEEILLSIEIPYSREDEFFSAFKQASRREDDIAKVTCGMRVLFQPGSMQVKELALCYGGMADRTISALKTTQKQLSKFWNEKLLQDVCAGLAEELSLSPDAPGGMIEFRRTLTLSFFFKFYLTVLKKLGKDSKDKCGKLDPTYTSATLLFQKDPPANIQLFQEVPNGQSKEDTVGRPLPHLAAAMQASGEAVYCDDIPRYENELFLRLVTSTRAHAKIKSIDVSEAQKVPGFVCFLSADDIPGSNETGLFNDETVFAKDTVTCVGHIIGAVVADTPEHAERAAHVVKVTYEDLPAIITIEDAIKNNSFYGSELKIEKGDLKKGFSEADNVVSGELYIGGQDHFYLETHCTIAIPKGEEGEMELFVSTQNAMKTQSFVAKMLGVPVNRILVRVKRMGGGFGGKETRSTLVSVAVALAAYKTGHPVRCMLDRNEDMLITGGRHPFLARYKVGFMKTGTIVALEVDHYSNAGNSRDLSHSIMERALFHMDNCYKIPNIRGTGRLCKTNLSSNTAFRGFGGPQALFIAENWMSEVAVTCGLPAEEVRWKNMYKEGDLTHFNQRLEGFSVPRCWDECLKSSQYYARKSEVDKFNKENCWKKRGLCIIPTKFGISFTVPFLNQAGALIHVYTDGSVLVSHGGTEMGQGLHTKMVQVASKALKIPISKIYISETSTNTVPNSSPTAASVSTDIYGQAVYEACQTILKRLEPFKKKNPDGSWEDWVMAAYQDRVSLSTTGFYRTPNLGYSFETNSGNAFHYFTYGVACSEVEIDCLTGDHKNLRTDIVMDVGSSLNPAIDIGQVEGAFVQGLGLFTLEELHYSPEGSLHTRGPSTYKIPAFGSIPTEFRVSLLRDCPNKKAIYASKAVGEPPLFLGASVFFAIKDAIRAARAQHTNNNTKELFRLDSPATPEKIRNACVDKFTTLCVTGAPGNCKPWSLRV
T2 sequence (C7FF04 1-392 limits assumed): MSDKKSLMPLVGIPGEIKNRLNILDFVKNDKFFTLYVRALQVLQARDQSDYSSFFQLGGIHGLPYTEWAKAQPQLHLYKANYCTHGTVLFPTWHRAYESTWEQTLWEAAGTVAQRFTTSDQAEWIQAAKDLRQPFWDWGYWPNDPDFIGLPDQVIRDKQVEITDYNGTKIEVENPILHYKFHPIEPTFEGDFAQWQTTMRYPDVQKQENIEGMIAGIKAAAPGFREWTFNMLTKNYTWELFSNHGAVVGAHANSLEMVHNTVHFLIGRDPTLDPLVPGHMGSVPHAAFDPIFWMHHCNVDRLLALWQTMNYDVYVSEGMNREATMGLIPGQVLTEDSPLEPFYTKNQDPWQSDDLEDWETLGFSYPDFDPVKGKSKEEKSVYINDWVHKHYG
xanthine oxidase (XOD), sequence (P80457 whole entry): as the sequence (P80457 whole entry) above
Description for xanthine oxidase (XOD): In the XOD inhibition assay, each well contained 30 μL of the PCR sample, 30 μL of XOD (0.05 U/mL, dissolved in 200 mM of phosphate buffer, pH 8.5), and 15 μL of NBT (2 mg/mL, dissolved in 200 mM of phosphate buffer, pH 8.5). […] The reaction was stopped by adding 15 µL of SDS (10%). The reaction solution was tested at 560 nm.

Turning to `O=C(O)CC(=O)OCC1OC(Oc2cc(O)cc(C=Cc3ccc(O)cc3)c2)C(O)C(O)C1O` (stereo not shown) [Malonyl glucoside resveratrol (6), Malonyl glucoside resveratrol], the “Binding degree: α-GLU” value with α-GLU [1] is listed as 11.90%. For the same compound, the “Binding degree: TYR” value in the assay on TYR [2] was 57.00%. Moreover, on XOD [3], the “Binding degree: XOD” value was 49.77%.

With `COC(=O)c1cc(O)c(O)c(O)c1` [Methylgallate (1), Methylgallate], in the assay on α-GLU [1], the “Binding degree: α-GLU” value is 0.00%. Besides, in the assay on TYR [2], the “Binding degree: TYR” value is listed as 36.03%. The “Binding degree: XOD” value at XOD [3] was 0.00%. On tyrosinase (TYR), this compound had an IC50 of 555 µM. Moreover, the “inhibition mode on TYR” value in the assay on TYR [4] is given as “noncompetitive type”.

Consider `OC[C@H]1O[C@@H](Oc2ccc(/C=C/c3cc(O)cc(O[C@@H]4O[C@H](CO)[C@@H](O)[C@H](O)[C@H]4O)c3)cc2)[C@H](O)[C@@H](O)[C@@H]1O` [Polydatin-4′-O-D-glucoside (3), Polydatin-4′-O-D-glucoside], for which the “Binding degree: α-GLU” value in the assay on α-GLU [1] came out at 0.00%. Further, the “Binding degree: TYR” value with TYR [2] was found to be 57.64%. In addition, on XOD [3], the “Binding degree: XOD” value was 0.00%.

In the case of `OC[C@H]1O[C@@H](Oc2cc(O)cc(/C=C/c3ccc(O)cc3)c2)[C@H](O)[C@@H](O)[C@@H]1O` [Resveratrol-5-O-D-glucoside (7), Resveratrol-5-O-D-glucoside], the “Binding degree: α-GLU” value with α-GLU [1] (listed as Peak 7) worked out at 0.00%. The “Binding degree: TYR” value in the assay on TYR [2] (listed as Peak 7) was determined as 70.51%. On XOD [3] (listed as Peak 7), the “Binding degree: XOD” value was found to be 11.65%.

Regarding `O=C(OC[C@H]1O[C@@H](OC(=O)c2cc(O)c(O)c(O)c2)[C@H](O)[C@@H](O)[C@@H]1O)c1cc(O)c(O)c(O)c1` [1,6-Di-O-galloyl-D-glucose (2), 1,6-Di-O-galloyl-D-glucose], the “Binding degree: α-GLU” value in the assay on α-GLU [1] turned out to be 0.00%. In addition, in the assay with TYR [2], the “Binding degree: TYR” value is given as 77.53%. Moreover, at XOD [3], the “Binding degree: XOD” value was 50.69%.

For `OC[C@H]1O[C@@H](Oc2cc(O)cc(/C=C/c3ccc(O)cc3)c2)[C@H](O)[C@@H](O)[C@@H]1O` [Polydatin (5), Polydatin], the “Binding degree: α-GLU” value with α-GLU [1] (listed as Peak 5) came to 16.51%. Also, the results for the IC50 against xanthine oxidase (XOD) and at tyrosinase (TYR) were 2130 µM and 188 µM, respectively. Moreover, in the assay on TYR [2] (listed as Peak 5), the “Binding degree: TYR” value was 80.74%. The “Binding degree: XOD” value at XOD [3] (listed as Peak 5) is 55.80%. The “inhibition mode on XOD” value on XOD [5] was “competitive type”. Further, in the assay with α-GLU [6], the “inhibition mode on α-GLU” value is recorded as “mixed type”. Moreover, in the assay on TYR [4], the “inhibition mode on TYR” value is given as “mixed type”.

Take `OC[C@H]1O[C@@H](Oc2ccc(/C=C/c3cc(O)cc(O)c3)cc2)[C@H](O)[C@@H](O)[C@@H]1O` [Resveratrol-4′-O-D-glucoside (4), Resveratrol-4′-O-D-glucoside]: the “Binding degree: α-GLU” value with α-GLU [1] is listed as 14.58%. Also, the “Binding degree: TYR” value with TYR [2] stood at 71.32%. On XOD [3], the “Binding degree: XOD” value is 30.66%.

As usually defined, the IC50 is the concentration that gives 50% inhibition. Higher therefore signals lower potency.
